Assay results published in ChEMBL document CHEMBL1147531, “Farnesyloxycoumarins, a new class of squalene-hopene cyclase inhibitors” (Bioorg Med Chem Lett, 2004).

What follows are compounds tested against T1, Squalene--hopene cyclase (Alicyclobacillus acidocaldarius subsp. acidocaldarius (strain ATCC27009 / DSM 446 / 104-1A) (Bacillus acidocaldarius)) (UniProt P33247) (assay: Inhibitory activity against squalene hopene cyclase from Alicyclobacillus acidocaldarius expressed in Escherichia coli at a concentration of 100 uM).
T1 sequence (whole entry): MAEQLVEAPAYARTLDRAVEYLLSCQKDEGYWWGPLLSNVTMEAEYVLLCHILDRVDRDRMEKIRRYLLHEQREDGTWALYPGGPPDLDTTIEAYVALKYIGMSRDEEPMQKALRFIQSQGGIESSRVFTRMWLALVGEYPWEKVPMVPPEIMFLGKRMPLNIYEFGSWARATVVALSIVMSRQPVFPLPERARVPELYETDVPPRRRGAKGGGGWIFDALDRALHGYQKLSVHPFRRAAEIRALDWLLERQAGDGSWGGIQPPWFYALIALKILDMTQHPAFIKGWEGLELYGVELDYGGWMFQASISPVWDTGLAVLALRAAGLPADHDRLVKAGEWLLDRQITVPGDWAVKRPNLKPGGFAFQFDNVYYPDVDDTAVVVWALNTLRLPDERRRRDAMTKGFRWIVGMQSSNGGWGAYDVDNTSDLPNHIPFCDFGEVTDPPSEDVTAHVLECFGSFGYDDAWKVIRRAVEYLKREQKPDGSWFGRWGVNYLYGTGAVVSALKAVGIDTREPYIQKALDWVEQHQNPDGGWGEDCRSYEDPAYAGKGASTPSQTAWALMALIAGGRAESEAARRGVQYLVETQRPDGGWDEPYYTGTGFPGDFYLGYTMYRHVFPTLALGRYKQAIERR
`CC(=O)Oc1cc2ccc(=O)oc2cc1OC/C=C(\C)CCC1OC1(C)CCC1OC1(C)C` (centres undefined) was tested, and the inhibition was 7%.
For `CC(=O)Oc1cc2ccc(=O)oc2cc1OC/C=C(\C)CC/C=C(\C)CCC1OC1(C)C` (centres undefined), the inhibition was 46%.
Work on `C/C(=C\COc1cc(=O)oc2ccccc12)CC/C=C(\C)CCC1OC1(C)C` (centres undefined) yielded an inhibition of 40%.

What follows are compounds tested against T2, Squalene--hopene cyclase (Alicyclobacillus acidocaldarius subsp. acidocaldarius (strain ATCC27009 / DSM 446 / 104-1A) (Bacillus acidocaldarius), UniProt P33247) (assay: Inhibitory activity against squalene hopene cyclase from Alicyclobacillus acidocaldarius expressed in Escherichia coli at a concentration of 100 uM; n.a. = not active).
T2 sequence (P33247 whole entry): T1 sequence (whole entry)
With `CC(C)=CCC/C(C)=C/CC/C(C)=C/COc1cc(=O)oc2ccccc12` the IC50 was “Not Active”.
`CC(=O)O[C@H]1CC[C@]2(C)[C@H](CC[C@](C)(O)[C@H]2COc2ccc3ccc(=O)oc3c2)C1(C)C` was tested, and the IC50 was “Not Active”.
For `CC(C)=CCC/C(C)=C/CC/C(C)=C/Cc1c(O)oc2cc(O)ccc2c1=O`, the IC50 was “Not Active”.
With `CC1(C)C(=O)CC[C@]2(C)[C@@H]1CC[C@](C)(O)[C@H]2COc1ccc2ccc(=O)oc2c1` the IC50 was “Not Active”.
In the case of `CC1(C)[C@H]2CC[C@](C)(O)[C@@H](COc3ccc4ccc(=O)oc4c3)[C@]2(C)CC[C@@H]1O`, the IC50 is reported as “Not Active”.
`C=C1CC[C@@H]2C(C)(C)[C@H](O)CC[C@@]2(C)[C@@H]1COc1ccc2ccc(=O)oc2c1` was tested, and the IC50 was “Not Active”.
`C=C1CC[C@@H]2C(C)(C)C(=O)CC[C@@]2(C)[C@@H]1COc1ccc2ccc(=O)oc2c1` was tested, and the IC50 was “Not Active”.

What follows are compounds tested against T2, Squalene--hopene cyclase (assay: Inhibitory activity against squalene hopene cyclase from Alicyclobacillus acidocaldarius expressed in Escherichia coli).
`C/C(=C\COc1ccc2ccc(=O)oc2c1)CCC1OC1(C)CCC1OC1(C)C` (centres undefined) gave an IC50 of 1.5 µM.
In the case of `CC(=O)Oc1ccc2c(OC(C)=O)c(C/C=C(\C)CC/C=C(\C)CCC3OC3(C)C)c(=O)oc2c1` (centres undefined), the IC50 is reported as 100 µM.
For `C/C(=C\COc1cc2oc(=O)ccc2cc1O)CC/C=C(\C)CCC1OC1(C)C` (centres undefined), the IC50 was 67 µM.
`CC(C)=CCC/C(C)=C/CC/C(C)=C/COc1ccc2ccc(=O)oc2c1` [UMBELLIPRENIN] was tested, and the IC50 was 70 µM.
`C/C(=C\COc1ccc2ccc(=O)oc2c1)CC/C=C(\C)CCC1OC1(C)C` (centres undefined) showed an IC50 of 2.5 µM.
For `CC(C)=CCC/C(C)=C/CC/C(C)=C/Cc1c(O)c2ccccc2oc1=O`, the IC50 was 90 µM.
Work on `C/C(=C\COc1ccc2ccc(=O)oc2c1)CC/C=C(\C)CCC(O)C(C)(C)O` (centres undefined) yielded an IC50 of 65 µM.
`C/C(=C\COc1ccc2ccc(=O)oc2c1)CC[C@H]1C2(C)CC[C@@H](O2)C1(C)C` (single isomer, unassigned) [FARNESIFEROL C] was tested, and the IC50 was 7 µM.

The compounds below were run against T1, Squalene--hopene cyclase (Alicyclobacillus acidocaldarius subsp. acidocaldarius (strain ATCC27009 / DSM 446 / 104-1A) (Bacillus acidocaldarius)) (assay: IInhibitory activity against squalene hopene cyclase from Alicyclobacillus acidocaldarius expressed in Escherichia coli at a concentration of 100 uM).
`CC(=O)Oc1ccc2c(OC(C)=O)c(C/C=C(\C)CCC3OC3(C)CCC3OC3(C)C)c(=O)oc2c1` (centres undefined) gave an inhibition of 38%.
